Patent US4153710A, “N-(4-[2-(pyrazole-1-carbonamide)-ethyl]-benzenesulphonyl)-urea” (Starogardzkie Zaklady Farmaceutyczne POLFA, priority 1976, dated 1979)

Tests used:
[1] = tested on: blood-glucose concentration; assay: Decrease in blood-glucose concentration in rats after oral dose (Table 1; ED30 rats Table 2); type: in vivo; details: Rattus norvegicus, oral, read-out: Effective oral doses ED30
Excerpt: (§1) The hypoglycemic activity of N-{4-[2-(pyrazole-1-carbonamide)-ethyl]-benzenesulphonyl}-ureas prepared according to the present invention can be noticed after their oral administration to mice, rats, rabbits and people and when determining the glucose concentration in blood with a known enzymatic method using glucose oxidase.
The exemplary comparison of effective doses (ED30) and the effect of oral dose size of the compounds prepared according to the present invention with Glibornuride, which is distinguished by its high effectiveness and good tolerance when administered to people, on the glucose concentration in the blood of rats, is given in Table 1.

[2] = tested on: blood-glucose concentration; assay: ED30 oral hypoglycemic dose in mice (Table 2); type: in vivo
Experimental: as §1
(§2) (Table 2). […] It has been observed that even 9 hours after the administration of one dose of SPC-5002 to rats, the glucose level in blood was decreased, whereas in the case of Glibornuride the glucose level comes back to its normal value in 6 hours from the time of the administration.

[3] = tested on: blood-glucose concentration; assay: ED30 oral hypoglycemic dose in rabbits (Table 2); type: in vivo; details: Oryctolagus cuniculus, read-out: Effective oral doses ED30
Experimental: as §1, §2

[4] = tested on: blood-glucose concentration; assay: Blood-glucose time course up to 24 hours in rats (Table 3); type: in vivo; details: for glucose concentration in blood, average: oral 4 mg/kg
Experimental: as §1, §2
(§3) The comparison of SPC-5002 and Glibornuride effect on changes in
concentration of rats in time up to 24 hours from the moment of the
in an oral dose containing 4 mg/kg body weight

[5] = tested on: blood-glucose concentration; assay: Blood-glucose time course up to 24 hours in rabbits (Table 4); type: in vivo; details: oral 5 mg/kg
Experimental: The hypoglycemic activity of N-{4-[2-(pyrazole-1-carbonamide)-ethyl]-benzenesulphonyl}-ureas prepared according to the present invention can be noticed after their oral administration to mice, rats, rabbits and people and when determining the glucose concentration in blood with a known enzymatic method using glucose oxidase. […]
as §3
concentration of rabbits in time up to 24 hours from the moment of the
in an oral dose containing 5 mg/kg body weight

[6] = tested on: oxygen consumption in mitochondria of a rat's liver; assay: Oxygen consumption of rat liver mitochondria; type: biochemical
Experimental: 2-oxoglutaran 2 mM, ADP 1 mM, mitochondria | protein 4 mg/m. […] The

[7] = tested on: oxidizing phosphorylation in mitochondria of a rat's liver; assay: Oxidizing phosphorylation of rat liver mitochondria; type: biochemical
Experimental: 2-oxoglutaran 2 mM, ADP 1 mM, mitochondria | protein 4 mg/m. […] The | oxidizing phosphorylation speed was determined by means of the measuremen | of hydrogen ion consumption. The calcium transmission to mitochondria was […]

[8] = tested on: calcium transmission in mitochondria of a rat's liver; assay: Calcium transmission to rat liver mitochondria; type: biochemical; details: for % of inhibition, calcium transmission: medium with CaCl 300 nmoles/ml
Experimental: Sucrose 170mM, KCl 10 mM, MgCl2 […], K2 HPO 5 mM, EGTA 0.01 mM
2-oxoglutaran 2 mM, ADP 1 mM, mitochondria
protein 4 mg/m. Temperature 25° C.
of hydrogen ion consumption. The calcium transmission to mitochondria was
studied with two methods; in a continuous way with a Radiometer calcium
electrode type F2112 or with an isotopic method.
*The medium contained Ca Cl 300 nmoles/ml.

glucose concentration = assay: Blood glucose in normal men volunteers (Table 7); type: in vivo; details: for Glucose concentration: oral 5 mg SPC-5002 or 12.5 mg Glibornuride
Experimental: as §1
(§4) When administered to normal men volunteers it has been stated that 60 minutes after the administration of SPC-5002 a 5 mg oral dose causes the decrease in blood-glucose of 28% in comparision to the starting value and after 90 minutes it reaches 33% (Table 7). Whereas Glibornuride employed in a dose 2.5 times as big on peak of its activity decreases the glucose blood level only of 19%. It can clearly be noticed that there is a positive correlation between the glycemic and insulin level curves. Both examined preparations cause a significant decrease in free fatty acids in blood. […] 60 and 90 minutes after the SPC-5002 administration, the blood-glycose level is decreased to 33 and 52% while in the Placebo group it is maintained in the range of 13-14%.
(§5) The comparison of glucose, insulin and free fatty acids concentration in
(§6) normal men after the oral administration of 5 mg of SPC-5002 or 12.5 mg

insulin concentration = assay: Insulin in normal men volunteers (Table 7); type: in vivo; details: oral 5 mg SPC-5002 or 12.5 mg Glibornuride
Experimental: as §4, §5, §6

[9] = tested on: free fatty acids concentration; assay: Free fatty acids in normal men volunteers (Table 7); type: in vivo; details: oral 5 mg SPC-5002 or 12.5 mg Glibornuride
Experimental: as §4, §5, §6

SMILES: Cc1ccc(S(=O)(=O)NC(=O)N[C@H]2[C@H]3CC[C@@](C)([C@H]2O)C3(C)C)cc1 [Glibornuride, N-(p-toluenesulphonyl)-N'-(2-endo-hydroxy-3-endo-bornyl)-urea, reference compound]
- ED30 [1]: 3.8 mg/kg
- ED30 relative to SPC-5002 [2]: almost three times as big as for SPC-5002
- ED30 ([2]; Mus musculus, oral, read-out: Effective oral doses ED30): 5.2 mg/kg
- ED30 [3]: 7.6 mg/kg
- duration of decreased blood glucose after one dose ([4]; one dose): 6 h
- glucose concentration in blood, average ([4]; 0 h): 68 mg/100 cc
- glucose concentration in blood, average ([4]; 1 h): 48 mg/100 cc
- glucose concentration in blood, average ([4]; 3 h): 47 mg/100 cc
- glucose concentration in blood, average ([4]; 6 h): 65 mg/100 cc
- glucose concentration in blood, average ([4]; 9 h): 74 mg/100 cc
- glucose concentration in blood, average ([4]; 24 h): 77 mg/100 cc
- glucose concentration in blood, average ([5]; 0 h): 74 mg/100 cc
- glucose concentration in blood, average ([5]; 0.5 h): 62 mg/100 cc
- glucose concentration in blood, average ([5]; 1 h): 63 mg/100 cc
- % of decrease /-/ or increase /+/ of blood glucose ([5]; 3 h): 0%
- glucose concentration in blood, average ([5]; 3 h): 74 mg/100 cc
- glucose concentration in blood, average ([5]; 6 h): 75 mg/100 cc
- glucose concentration in blood, average ([5]; 9 h): 75 mg/100 cc
- glucose concentration in blood, average ([5]; 24 h): 78 mg/100 cc
- % of inhibition, oxygen consumption ([6]; concentration 0.5 n M): 22%
- % of inhibition, oxygen consumption ([6]; concentration 1.0 n M): 47%
- Ki ([6]; rat liver mitochondria): 1150 µM
- % of inhibition, oxidizing phosphorylation ([7]; concentration 0.5 n M): 32%
- % of inhibition, oxidizing phosphorylation ([7]; concentration 1.0 n M): 59%
- Ki ([7]; rat liver mitochondria): 760 µM
- Calcium transmission / Oxide consumption (ratio of inhibition) ([8]; concentration 0.5 n M): 2.36
- % of inhibition, calcium transmission ([8]; concentration 0.5 n M): 52%
- Calcium transmission / Oxide consumption (ratio of inhibition) ([8]; concentration 1.0 n M): 1.60
- % of inhibition, calcium transmission ([8]; concentration 1.0 n M): 76%
- Ki ([8]; rat liver mitochondria): 490 µM
- preference of inhibition: calcium transmission versus oxidizing processes ([8]; rat liver mitochondria): preferential inhibiting of calcium transmission
- decrease in glucose blood level at peak of activity (glucose concentration; dose 2.5 times that of SPC-5002 (12.5 mg)): 19%
- Glucose concentration (glucose concentration; 0 mins (empty stomach)): 91.0 mg/100 cc
- Glucose concentration (glucose concentration; 30 mins): 87.0 mg/100 cc
- Glucose concentration (glucose concentration; 60 mins): 80.0 mg/100 cc
- Glucose concentration (glucose concentration; 90 mins): 74.0 mg/100 cc
- Glucose concentration (glucose concentration; 120 mins): 75.0 mg/100 cc
- Glucose concentration (glucose concentration; 180 mins): 76.0 mg/100 cc
- Insulin concentration (insulin concentration; 0 mins (empty stomach)): 3.6 μU/cc
- Insulin concentration (insulin concentration; 30 mins): 4.2 μU/cc
- Insulin concentration (insulin concentration; 60 mins): 6.2 μU/cc
- Insulin concentration (insulin concentration; 90 mins): 5.2 μU/cc
- Insulin concentration (insulin concentration; 120 mins): 6.4 μU/cc
- Insulin concentration (insulin concentration; 180 mins): 4.4 μU/cc
- Free fatty acids concentration ([9]; 0 mins (empty stomach)): 0.76 mEq/1000 cc
- Free fatty acids concentration ([9]; 30 mins): 0.58 mEq/1000 cc
- Free fatty acids concentration ([9]; 60 mins): 0.46 mEq/1000 cc
- Free fatty acids concentration ([9]; 90 mins): 0.48 mEq/1000 cc
- Free fatty acids concentration ([9]; 120 mins): 0.51 mEq/1000 cc
- Free fatty acids concentration ([9]; 180 mins): 0.52 mEq/1000 cc
